This note sets out measurements from patent US10703761B2, “Bile acid receptor modulators and methods of use thereof” (City of Hope, priority 2016, dated 2020).

This assay has as its target T1, FXR (Homo sapiens, UniProt Q96RI1).
T1 construct: expressed in transfected cells; host or cells: HEK293 (transient)
T1 sequence (Q96RI1 1-486): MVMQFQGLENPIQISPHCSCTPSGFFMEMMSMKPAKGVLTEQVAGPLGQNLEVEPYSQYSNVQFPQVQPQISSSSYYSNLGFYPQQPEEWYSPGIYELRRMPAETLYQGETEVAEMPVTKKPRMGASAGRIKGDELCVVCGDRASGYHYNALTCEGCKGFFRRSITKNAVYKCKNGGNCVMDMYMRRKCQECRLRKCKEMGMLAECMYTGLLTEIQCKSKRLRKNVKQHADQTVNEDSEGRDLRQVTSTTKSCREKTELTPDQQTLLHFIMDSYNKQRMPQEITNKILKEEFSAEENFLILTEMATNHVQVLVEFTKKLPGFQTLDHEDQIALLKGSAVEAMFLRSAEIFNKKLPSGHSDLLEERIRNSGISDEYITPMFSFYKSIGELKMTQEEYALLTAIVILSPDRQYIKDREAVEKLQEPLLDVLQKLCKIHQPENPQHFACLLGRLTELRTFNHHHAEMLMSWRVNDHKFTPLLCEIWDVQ
T1 sequence (P19793 1-462 partner): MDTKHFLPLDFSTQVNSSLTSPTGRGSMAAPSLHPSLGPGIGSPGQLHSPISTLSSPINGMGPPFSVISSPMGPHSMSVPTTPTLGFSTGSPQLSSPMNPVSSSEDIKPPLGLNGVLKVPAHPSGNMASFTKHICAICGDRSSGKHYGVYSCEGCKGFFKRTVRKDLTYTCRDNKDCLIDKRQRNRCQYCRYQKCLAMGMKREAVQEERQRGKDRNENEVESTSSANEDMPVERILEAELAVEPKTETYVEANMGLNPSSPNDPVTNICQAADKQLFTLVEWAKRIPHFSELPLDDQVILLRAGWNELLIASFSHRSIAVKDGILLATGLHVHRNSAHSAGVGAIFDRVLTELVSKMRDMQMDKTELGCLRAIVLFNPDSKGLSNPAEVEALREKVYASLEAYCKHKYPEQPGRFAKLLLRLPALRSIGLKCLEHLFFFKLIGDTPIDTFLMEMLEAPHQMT
As to the kind of experiment: FXR luciferase reporter assay, transient transfection with a synthetic FXR responsive reporter plasmid in HEK293 cells. The assay is classed as cell-based. Conditions: compound alone, compared with GW4064. On the procedure:
Effect of berberine derivatives and γ-aminobutyric acid derivative on FXR inhibition was initially assessed using transient transfections with a synthetic FXR responsive reporter plasmid. HEK 293 Cells were treated with vehicle alone or 100 μM CDCA with or without compounds, as indicated. Results are luciferase expression normalized using the β-gal internal control.
TGR5-reporting activity was evaluated by luciferase assay. Treatments were performed in quadruplicate and normalized with β-galactosidase. HEK293 cells were transfected with FXR and RXRα, and FXRE-containing luciferase construct. Cells were treated with 10 μM of indicated compounds; luciferase was measured and normalized with β-galactosidase.
To evaluate TGR5 activity of compounds, cells were transfected 100 ng pCRE-luc reporter along with pCMV-galactosidase (10 ng) as an internal control for normalization of transfection efficiency. Plasmids were complexed with […] of Fugene 6 reagent (Promega, Madison, Wis.) in OptiMEM (Invitrogen, Carlsbad, Calif.) and cells were transfected for 18 h. The following day, cells were treated with vehicle and appropriate ligand as indicated. Luciferase and β-galactosidase activities were assayed 6 h later using Luciferase Assay System (Promega) and Galacto-Star (Applied Biosystems, Foster City, Calif.) reagents, respectively, and a MLX luminometer (Dynex Technologies, Chantilly, Va.). To evaluate the FXR activity of compounds, HEK293 cells were transfected with 25 ng of farnesoid X receptor expression plasmid (pCMX-hFXR), 25 ng of retinoid X receptor expression plasmid (pCMXhRXR), 100 ng of reporter plasmid (pEcREx6-TK-Luc), and 10 ng of pCMV-b-galactosidase as an internal control in each well, using Fugene 6 reagent. Approximately 18 h after transfection, cells were incubated for 12 h with different concentrations of each.
For orientation: Reporter assays use an easily measured gene product as a stand-in for the process of interest.

As to `COc1ccc2cc3[n+](cc2c1OC)CCc1cc2c(cc1-3)OCO2` [berberine], the “FXR activity of compound alone (agonism)” value is “failed to activate FXR”. Also, under “listed as Berberine”, the “FXR activity of compound alone (agonism)” value is listed as “no effect on FXR activity”.
